Data published in patent EP4324461A1, “(E)-N-CINAMOYLAMINOALKANOLES WITH MELANOGENESIS INHIBITORY ACTIVITY” (UNIWERSYTET JAGIELLONSKI, priority 2022, dated 2024).

Assays:
[1] = test system: S. typhimurium TA100; test: Ames microplate test, TA100; type: cell-based, Salmonella typhimurium;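 note: reference level is the mean solvent-control yellow wells plus SD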
Description: Bacteria were grown overnight in growth medium.
Table 9. Ames microplate test results.

[2] = test system: S. typhimurium TA1535; test: Ames microplate test, TA1535;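 note: bacteria exposed to compound 90 min at 37 °C, then kept 48 h at 37 °C with indicator medium in 384-well plates, scoring wells that turned yellow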
[3] = test system: Keratinocytes (HaCaT); test: Safety, LDH test in keratinocytes; type: cell-based; details: 48 hours, positive control Triton X-100
Description: (§1) In order to test the safety of the compounds, both normal human cells were used: keratinocytes (HaCaT), fibroblasts (BJ), primary melanocytes that occur in the skin, as well as human cancer cells: the hepatocarcinoma line HepG2 and the neuroblastoma line SH-SY5Y, which are considered a model for the assessment of hepatocytotoxicity and neurocytotoxicity. The concentrations of the tested compounds in the range of 250-100 µM were used in the studies. The cell lines used in the research were purchased from the American Type Culture Collection (ATCC) and were cultured in media recommended by the manufacturer with the addition of FBS and antibiotics in an incubator ensuring appropriate culture conditions, i.e. humidity, temperature and CO2 concentration. Cells were seeded into multiwell plates and incubated with the test compounds for 48 hours. After this time, MTT and LDH tests were performed to assess cell viability. The MTT test is based on the ability to transform the substrate: [3-(4,5-dimethyl-2-thiazolyl)-2,5-diphenyl-2H-tetrazolium bromide into a colored product only by living cells. The absorbance at 570 nm, which corresponds to the absorption maximum for the product, is directly proportional to cell viability. The LDH test is based on testing the activity of the enzyme lactate dehydrogenase in the culture medium, which is released from cells as a result of damage to the cell membrane, e.g. as a result of cell death. Triton X-100 was used as a positive control in the test. The determination is colorimetric, the substrate is transformed by the released enzyme into a colored product, an increase in absorbance indicates a larger amount of the released enzyme, and thus confirms greater damage to cell membranes. Tables 7 and 8 present the results obtained, which correspond to the viability of cells incubated with the compounds in relation to the viability of cells constituting a control sample, i.e. incubated with the solvent (DMSO) at the same concentration as in the case of the groups tested in the MTT test or in relation to the results obtained for the Triton X-100 positive control in the LDH test. They indicate that the compounds are safe at the concentrations tested. Table 7. Viability of tested normal human cell lines: keratinocytes (HaCaT), fibroblasts (BJ) and primary melanocytes after incubation with the tested compounds - determination in the MTT test (% of solvent control ± SD) and LDH (percentage of positive control - Triton X-100.

[4] = test system: neuroblastoma SH-SY5Y; test: Safety, MTT test in SH-SY5Y; type: cell-based; details: 48 hours
Description: as §1

[5] = test system: reconstructed human epidermis containing melanocytes MelanoDerm™ MEL-300-B; test: Melanogenesis inhibition in reconstructed human epidermis containing melanocytes (MelanoDerm); type: cell-based; details: 14 days; for Melanin content [% control, mean ± SD]: 7 applications; for Viability [% control, mean ± SD]: MTT
Description: (§2) The research was carried out on reconstructed human epidermis containing melanocytes MelanoDerm™ MEL-300-B from MatTek (Bratislava, Slovakia). The ratio of keratinocytes to melanocytes in the epidermis used is 10:1. Only medium purchased from the same manufacturer (EPI-100-NMM-113) was used to culture the epidermis during the experiments. Once the epidermis was obtained, it was transferred to 12-well plates containing 5 mL of medium/well. Plates were used to enable proper contact of the lower parts of the inserts with the substrate (so-called hanging-top plate). Solutions of the compounds were prepared immediately before their application. The solutions were applied to the inserts using a positive displacement pipette and then distributed using a sterile glass bulb headed Pasteur pipette. The application was repeated every 48 hours, a total of 7 applications were performed. Before the next application, each insert was rinsed with sterile DPBS and dried with a sterile cotton buds. The application was also accompanied by a change of the medium. […] The epidermis was cultured in an incubator ensuring appropriate humidity, temperature (37 °C) and CO2 concentration (5%).
The experiment was conducted for 14 days. After this time, the inserts were rinsed with DPBS and dried with a cotton swab. For the selected pool of inserts, tissue viability was assessed using the MTT (Thiazolyl Blue Tetrazolium bromide) test, the remaining ones were used to determine the amount of melanin. To assess viability, the inserts were transferred to 24-well plate containing 0.3 mL of DMEM medium with 1 mg/mL MTT and incubated for 3 hours in an incubator. The epidermis was then placed in 2 mL of isopropanol and the resulting formazan was extracted for 2 hours at room temperature. The absorbance of the samples was measured at 570 nm in a microplate reader and correlated with the absorbance of the control by the formula: % Viability = [OD (570 nm) for test compound/OD (570 nm) for control] × 100. To determine the amount of melanin, the inserts were incubated in 5% sodium bicarbonate for 30 min, then dried and placed in 0.5 mL of Solvable™ reagent, which caused complete lysis of the epidermis. After heating at 95 °C, the absorbance of the samples was measured at 405 nm in a microplate reader. On this basis, the reduction in the amount of melanin was calculated in relation to the control sample. The absorbance results were also correlated with a standard curve for synthetic melanin. […] Table 5. Viability and melanin content in the MelanoDerm epidermis after application of the tested samples, calculated on the basis of absorbance measurements.
as §2, with “Only media” for “Only medium”, “cotton bud.” for “cotton buds.”
The experiment was conducted for 14 days. After this time, the inserts were rinsed with DPBS and dried with a cotton bud. […]

Compound | Increase in the number of yellow wells compared to the reference level ([1]; 0.5 mM, +S9) | Increase in the number of yellow wells compared to the reference level ([1]; 0.5 mM, without S9) | Increase in the number of yellow wells compared to the reference level ([1]; 1.0 mM, +S9) | Increase in the number of yellow wells compared to the reference level ([1]; 1.0 mM, without S9) | Increase in the number of yellow wells compared to the reference level ([1]; 2.0 mM, +S9) | Increase in the number of yellow wells compared to the reference level ([1]; 2.0 mM, without S9) | Increase in the number of yellow wells compared to the reference level ([2]; 0.5 mM, +S9) | Increase in the number of yellow wells compared to the reference level ([2]; 0.5 mM, without S9) | Increase in the number of yellow wells compared to the reference level ([2]; 1.0 mM, +S9) | Increase in the number of yellow wells compared to the reference level ([2]; 1.0 mM, without S9) | Increase in the number of yellow wells compared to the reference level ([2]; 2.0 mM, +S9) | Increase in the number of yellow wells compared to the reference level ([2]; 2.0 mM, without S9) | Keratinocytes (HaCaT) LDH ([3]; 100 µM) | Keratinocytes (HaCaT) LDH ([3]; 150 µM) | Keratinocytes (HaCaT) LDH ([3]; 200 µM) | Keratinocytes (HaCaT) LDH ([3]; 250 µM) | Neuroblastoma SH-SYSY MTT ([4]; 100 µM) | Neuroblastoma SH-SYSY MTT ([4]; 150 µM) | Neuroblastoma SH-SYSY MTT ([4]; 200 µM) | Neuroblastoma SH-SYSY MTT ([4]; 250 µM) | also measured
O=C(/C=C/c1ccc(Cl)cc1)NCCCCCO [Compound A-111, (2E)-3-(4-chlorophenyl)-N-(5-hydroxypentyl)prop-2-enamide] | 0.97 | 0.74 | 0.47 | 0.39 | 0.67 | 0.42 | 0.58 | 0.55 | 0.35 | 0.18 | 0.23 | 1.65 | 4.69 percentage of positive control | 4.43 percentage of positive control | 6.49 percentage of positive control | 13.55 percentage of positive control | 100.14±3.22 % of solvent control | 99.32±3.36 % of solvent control | 100.55±2.31 % of solvent control | 99.93±4.36 % of solvent control | Melanin content [% control, mean ± SD] ([5]; 1.0% in 50% PEG (10 µL)): 94.95±3.57 % control; Viability [% control, mean ± SD] ([5]; 1.0% in 50% PEG (10 µL)): 101.45±6.45 % control; Melanin content [% control, mean ± SD] ([5]; 1.0% in 50% PEG (25 µL)): 81.23±6.53 % control; Viability [% control, mean ± SD] ([5]; 1.0% in 50% PEG (25 µL)): 85.67±7.25 % control; Melanin content [% control, mean ± SD] ([5]; 2.0% in 50% PEG (25 µL)): 67.26±9.18 % control; Viability [% control, mean ± SD] ([5]; 2.0% in 50% PEG (25 µL)): 106.64±7.78 % control
O=C(/C=C/c1ccc(Cl)cc1)NCCCO [H-330/21, (2E)-3-(4-chlorophenyl)-N-(3-hydroxypropyl)prop-2-enamide] |  |  |  |  |  |  |  |  |  |  |  |  | 3.66 percentage of positive control | 5.33 percentage of positive control | 17.03 percentage of positive control | 24.24 percentage of positive control | 99.79±5.34 % of solvent control | 99.86±3.76 % of solvent control | 99.79±3.97 % of solvent control | 99.11±3.66 % of solvent control | 
Cc1ccc(/C=C/C(=O)NCCCCCO)cc1 [H-415/21, (2E)-N-(5-hydroxypentyl)-3-(4-methylphenyl)prop-2-enamide] |  | 0.92 |  | 0.58 |  | 0.75 |  | 0.21 |  | 0.41 |  | 0.10 | 2.95 percentage of positive control | 6.70 percentage of positive control | 10.18 percentage of positive control | 18.19 percentage of positive control | 100.68±4.63 % of solvent control | 99.32±2.96 % of solvent control | 100.27±3.50 % of solvent control | 101.71±2.38 % of solvent control | 
O=C(/C=C/c1ccccc1)NCCCCCCO [H-425/21, (E)-N-(6-hydroxyhexyl)cinnamic acid amide] | 0.50 | 0.73 | 0.69 | 0.80 | 0.58 | 0.73 | 0.54 | 1.04 | 0.40 | 0.59 | 0.94 | 0.45 |  |  |  |  |  |  |  |  | Melanin content [% control, mean ± SD] ([5]; 1.0% in 50% PEG (10 µL)): 102.98±4.25 % control; Viability [% control, mean ± SD] ([5]; 1.0% in 50% PEG (10 µL)): 87.16±6.30 % control
O=C(/C=C/c1ccc(Cl)cc1)NCCO [H-427/21, (2E)-3-(4-chlorophenyl)-N-(2-hydroxyethyl)prop-2-enamide] |  |  |  |  |  |  |  |  |  |  |  |  | 2.76 percentage of positive control | 3.69 percentage of positive control | 6.50 percentage of positive control | 17.79 percentage of positive control | 100.48±3.67 % of solvent control | 100.96±2.72 % of solvent control | 101.30±2.94 % of solvent control | 102.60±9.66 % of solvent control | 
